Columns and labels:
BaF3 [1] = test: Antiproliferative activity against mouse BaF3 cells harbouring FLT3-ITD-D835V mutant; assay type: functional, cell-based
BaF3 [2] = test: Antiproliferative activity against mouse BaF3 cells harbouring FLT3-ITD-F691L mutant; assay type: functional, cell-based
MOLM-13 = test: Antiproliferative activity against human MOLM-13 cells; assay type: functional, cell-based
[3] = target: T1, Receptor-type tyrosine-protein kinase FLT3 (Homo sapiens, UniProt P36888); test: Inhibition of wild type FLT3 (unknown origin)
T1 sequence (P36888 whole entry): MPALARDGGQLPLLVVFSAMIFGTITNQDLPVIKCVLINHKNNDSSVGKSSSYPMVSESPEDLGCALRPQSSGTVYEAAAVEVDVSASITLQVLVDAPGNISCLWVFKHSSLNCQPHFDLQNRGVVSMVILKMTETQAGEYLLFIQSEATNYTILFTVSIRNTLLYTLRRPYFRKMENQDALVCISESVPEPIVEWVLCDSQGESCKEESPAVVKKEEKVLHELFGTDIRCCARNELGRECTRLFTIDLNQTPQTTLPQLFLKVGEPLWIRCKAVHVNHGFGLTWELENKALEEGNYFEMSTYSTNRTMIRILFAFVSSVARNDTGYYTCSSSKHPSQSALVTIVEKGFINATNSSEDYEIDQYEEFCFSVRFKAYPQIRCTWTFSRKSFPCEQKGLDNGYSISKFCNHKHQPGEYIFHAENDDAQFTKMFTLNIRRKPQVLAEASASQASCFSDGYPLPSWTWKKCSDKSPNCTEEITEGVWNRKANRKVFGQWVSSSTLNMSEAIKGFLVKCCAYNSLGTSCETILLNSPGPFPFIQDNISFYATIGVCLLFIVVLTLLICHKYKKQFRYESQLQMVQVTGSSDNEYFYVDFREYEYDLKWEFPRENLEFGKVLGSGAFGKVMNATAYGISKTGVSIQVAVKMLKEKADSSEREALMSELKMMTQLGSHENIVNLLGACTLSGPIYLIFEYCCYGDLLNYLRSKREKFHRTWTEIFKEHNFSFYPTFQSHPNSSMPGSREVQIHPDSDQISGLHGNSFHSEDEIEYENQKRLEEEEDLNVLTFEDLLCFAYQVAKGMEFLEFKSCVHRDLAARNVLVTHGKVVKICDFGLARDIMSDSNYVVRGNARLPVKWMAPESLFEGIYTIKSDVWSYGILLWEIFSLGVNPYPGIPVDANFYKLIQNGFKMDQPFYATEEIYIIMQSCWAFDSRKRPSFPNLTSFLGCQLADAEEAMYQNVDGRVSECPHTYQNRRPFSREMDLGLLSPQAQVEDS

MV4-11 = test: Antiproliferative activity against human MV4-11 cells; assay type: functional, cell-based
BaF3 [4] = test: Antiproliferative activity against mouse BaF3 cells harbouring FLT3-ITD-N676D mutant; assay type: functional, cell-based
[5] = target: High affinity nerve growth factor receptor (Homo sapiens, UniProt P04629); test: Inhibition of human TRKA by discoverX kinome scan assay
[6] = target: Epithelial discoidin domain-containing receptor 1 (Homo sapiens, UniProt Q08345); test: Inhibition of human DDR1 by discoverX kinome scan assay
[7] = target: T2, Discoidin domain-containing receptor 2 (Homo sapiens, UniProt Q16832); test: Inhibition of human DDR2 by discoverX kinome scan assay
T2 sequence (Q16832 whole entry): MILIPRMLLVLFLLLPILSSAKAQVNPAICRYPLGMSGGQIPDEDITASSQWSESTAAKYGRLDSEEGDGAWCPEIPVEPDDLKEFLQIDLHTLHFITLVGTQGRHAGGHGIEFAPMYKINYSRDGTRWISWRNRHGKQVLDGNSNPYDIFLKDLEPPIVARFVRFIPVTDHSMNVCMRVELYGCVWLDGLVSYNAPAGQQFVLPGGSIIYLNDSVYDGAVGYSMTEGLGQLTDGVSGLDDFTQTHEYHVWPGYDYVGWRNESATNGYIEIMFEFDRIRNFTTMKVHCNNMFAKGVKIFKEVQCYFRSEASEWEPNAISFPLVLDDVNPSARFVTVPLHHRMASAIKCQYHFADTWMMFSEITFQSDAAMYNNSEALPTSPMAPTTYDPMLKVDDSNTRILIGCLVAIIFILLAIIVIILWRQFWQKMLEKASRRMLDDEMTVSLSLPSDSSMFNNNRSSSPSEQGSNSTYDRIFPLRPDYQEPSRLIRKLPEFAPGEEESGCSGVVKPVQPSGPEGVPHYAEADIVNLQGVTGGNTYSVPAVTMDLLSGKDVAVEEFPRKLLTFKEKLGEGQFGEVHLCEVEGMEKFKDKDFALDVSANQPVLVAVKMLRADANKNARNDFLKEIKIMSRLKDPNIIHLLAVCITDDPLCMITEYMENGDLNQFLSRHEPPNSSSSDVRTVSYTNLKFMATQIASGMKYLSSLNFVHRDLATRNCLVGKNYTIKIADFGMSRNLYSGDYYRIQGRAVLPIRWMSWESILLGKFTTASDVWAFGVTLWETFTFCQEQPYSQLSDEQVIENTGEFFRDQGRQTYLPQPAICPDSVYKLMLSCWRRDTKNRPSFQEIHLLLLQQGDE

[8] = target: T3, Muscle, skeletal receptor tyrosine-protein kinase (Homo sapiens, UniProt O15146); test: Inhibition of human MUSK by discoverX kinome scan assay
T3 sequence (O15146 whole entry): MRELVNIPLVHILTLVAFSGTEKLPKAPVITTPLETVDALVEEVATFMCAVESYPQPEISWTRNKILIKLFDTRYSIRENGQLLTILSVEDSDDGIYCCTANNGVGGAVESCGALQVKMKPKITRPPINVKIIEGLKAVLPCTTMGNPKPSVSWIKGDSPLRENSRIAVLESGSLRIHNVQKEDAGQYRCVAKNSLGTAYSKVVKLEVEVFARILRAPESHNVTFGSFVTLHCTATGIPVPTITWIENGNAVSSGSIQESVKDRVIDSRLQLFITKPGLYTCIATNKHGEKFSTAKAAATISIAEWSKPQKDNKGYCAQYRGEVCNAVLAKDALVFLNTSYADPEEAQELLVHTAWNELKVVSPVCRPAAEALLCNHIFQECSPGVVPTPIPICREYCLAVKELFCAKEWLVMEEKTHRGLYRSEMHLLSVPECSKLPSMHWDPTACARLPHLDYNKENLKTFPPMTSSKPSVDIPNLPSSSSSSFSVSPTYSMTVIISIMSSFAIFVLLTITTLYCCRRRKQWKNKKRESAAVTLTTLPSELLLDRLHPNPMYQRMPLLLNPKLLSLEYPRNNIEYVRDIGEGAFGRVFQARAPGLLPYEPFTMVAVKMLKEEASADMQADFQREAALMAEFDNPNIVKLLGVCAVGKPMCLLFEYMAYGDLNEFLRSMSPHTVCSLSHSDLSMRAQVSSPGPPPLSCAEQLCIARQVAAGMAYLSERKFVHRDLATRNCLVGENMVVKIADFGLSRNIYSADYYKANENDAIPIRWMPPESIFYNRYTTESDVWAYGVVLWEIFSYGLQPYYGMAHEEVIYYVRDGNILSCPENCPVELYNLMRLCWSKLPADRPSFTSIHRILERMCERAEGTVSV

Epithelial discoidin domain-containing receptor 1, sequence (Q08345 whole entry, the tested form may be a part): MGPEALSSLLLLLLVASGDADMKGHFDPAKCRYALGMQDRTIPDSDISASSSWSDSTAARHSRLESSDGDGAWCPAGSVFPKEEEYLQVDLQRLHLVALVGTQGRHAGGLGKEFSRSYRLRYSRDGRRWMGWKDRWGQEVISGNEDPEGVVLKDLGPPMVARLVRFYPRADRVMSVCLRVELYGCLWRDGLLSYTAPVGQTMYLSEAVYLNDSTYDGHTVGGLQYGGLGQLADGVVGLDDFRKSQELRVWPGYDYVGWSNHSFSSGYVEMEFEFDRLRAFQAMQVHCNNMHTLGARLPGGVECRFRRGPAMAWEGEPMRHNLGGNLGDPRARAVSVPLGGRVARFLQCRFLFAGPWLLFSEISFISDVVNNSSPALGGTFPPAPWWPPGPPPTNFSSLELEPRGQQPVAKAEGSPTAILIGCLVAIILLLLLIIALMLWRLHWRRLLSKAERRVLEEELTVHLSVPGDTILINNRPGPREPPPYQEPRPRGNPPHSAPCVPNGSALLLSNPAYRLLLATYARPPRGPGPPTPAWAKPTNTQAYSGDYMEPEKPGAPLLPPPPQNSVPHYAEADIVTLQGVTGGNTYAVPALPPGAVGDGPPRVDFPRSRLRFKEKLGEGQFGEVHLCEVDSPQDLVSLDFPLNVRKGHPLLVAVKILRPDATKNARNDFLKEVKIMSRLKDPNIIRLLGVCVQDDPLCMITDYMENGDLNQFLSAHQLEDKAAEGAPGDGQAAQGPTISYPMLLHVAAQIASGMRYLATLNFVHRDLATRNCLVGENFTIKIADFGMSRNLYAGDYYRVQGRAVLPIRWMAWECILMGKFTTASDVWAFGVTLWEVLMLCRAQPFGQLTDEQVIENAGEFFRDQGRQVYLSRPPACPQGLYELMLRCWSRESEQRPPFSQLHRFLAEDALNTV
High affinity nerve growth factor receptor, sequence (P04629 whole entry, the tested form may be a part): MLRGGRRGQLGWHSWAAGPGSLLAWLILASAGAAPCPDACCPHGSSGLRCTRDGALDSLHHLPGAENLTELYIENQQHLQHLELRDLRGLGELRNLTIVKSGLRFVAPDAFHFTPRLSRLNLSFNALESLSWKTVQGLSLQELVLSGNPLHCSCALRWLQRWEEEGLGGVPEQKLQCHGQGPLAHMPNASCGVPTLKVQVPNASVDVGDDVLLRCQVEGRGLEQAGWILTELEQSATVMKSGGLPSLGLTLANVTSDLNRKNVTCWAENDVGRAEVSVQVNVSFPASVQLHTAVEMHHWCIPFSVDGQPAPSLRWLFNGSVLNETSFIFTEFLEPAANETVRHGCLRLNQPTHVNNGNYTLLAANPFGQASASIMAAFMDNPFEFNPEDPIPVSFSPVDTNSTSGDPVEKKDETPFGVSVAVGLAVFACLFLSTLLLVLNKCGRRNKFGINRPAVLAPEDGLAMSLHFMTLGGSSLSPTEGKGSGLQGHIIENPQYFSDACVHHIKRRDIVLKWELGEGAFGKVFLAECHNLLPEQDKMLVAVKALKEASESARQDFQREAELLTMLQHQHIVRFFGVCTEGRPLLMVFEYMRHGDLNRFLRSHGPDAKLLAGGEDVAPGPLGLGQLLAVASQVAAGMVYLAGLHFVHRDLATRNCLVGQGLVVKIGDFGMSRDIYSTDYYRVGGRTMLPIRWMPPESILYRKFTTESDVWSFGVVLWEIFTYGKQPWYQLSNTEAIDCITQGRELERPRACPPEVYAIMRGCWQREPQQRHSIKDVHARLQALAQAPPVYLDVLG

IC50 (BaF3 [1]) | IC50 (BaF3 [2]) | IC50 (MOLM-13) | IC50 [3] | IC50 (MV4-11) | IC50 (BaF3 [4]) | IC50 [5] | IC50 [6] | IC50 [7] | IC50 [8] | SMILES
8420 nM | 3570 nM | 140 nM | 103 nM | 58 nM | 1160 nM | – | – | – | – | COc1cccc(CC(=O)Nc2ccc(-c3cc(C)nc4nocc34)cc2)c1
– | – | – | – | – | – | 113 nM | 55.4 nM | 96.7 nM | > 1000 nM | Cc1cc(-c2ccc(NC(=O)Nc3ccc(C(C)(C)C)cc3)cc2)c2c(N)noc2n1
